In PubChem BioAssay AID1902 (Broad Institute, 2009):
Active and inactive are the calls of the source.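 The calls were made as follows: active = EC50 no more than a set limit of log units above the highest dose; inactive = the rest.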

Target: S. pyogenes SKKanGAS, kanamycin survival, BacTiterGlo, 6 h
Test: SKKanGAS survival reduction under kanamycin, dose response, streptokinase promoter inhibitor project, SKKanGAS strain, luminescence, dose confirmation (AID 1902);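 also: lower survival reflects blocked streptokinase promoter driving kanamycin resistance gene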

Row | Compound | EC50
1 | COCC1=C(C(=O)OC(C)OC(=O)OC(C)C)N2C(=O)[C@@H](NC(=O)/C(=N\OC)c3csc(N)n3)[C@H]2SC1 (some centres undefined) | 0.797 µM
2 | O=c1cc(-c2ccccc2)nc2c(-c3ccccc3)c(C(F)(F)F)[nH]n12 | 3.23 µM
3 | CC(C)NC(=O)NC(=O)CSc1nnc(COc2ccccc2F)n1C(C)C1CC2CCC1C2 (centres undefined) | 6.58 µM
4 | S=C(NCCC(c1ccccc1)c1ccccc1)Nc1cccc(Cl)c1 | 5.82 µM
5 | Oc1ccc(-c2c(C3=CCCCC3)sc3ccccc23)cc1 | 4.97 µM
6 | C/C(=N\NC(=O)c1cc(Br)ccc1O)c1ccccn1 | < 0.06 µM
7 | CC(C)C(=O)Nc1ccc(C(=O)N/N=C/c2cc(Br)cc(Br)c2O)cc1 | 1.36 µM
8 | Cc1ccc(-n2[nH]c(C)c(/C=N/NC(=O)c3cccc([N+](=O)[O-])c3)c2=O)cc1C | 1.15 µM
9 | CCOC(=O)c1sc(=S)n2c1[nH]c(=O)c1ccc(C(=O)OC)cc12 | 3.81 µM
10 | CCOc1ccccc1C(=O)OCC(=O)Nc1nnc(-c2ccccc2)o1 | 6.94 µM
11 | COc1ccc(CC(=O)NC(=S)NNC(=O)COc2c(C)cccc2C)cc1 | 0.134 µM
12 | Clc1ccc(-c2n[nH]c3c2CCC3)c(Cl)c1 | 0.975 µM
13 | CCCn1c(C2CCCN2c2nc(-c3cccc(Br)c3)cs2)nc2cc(Cl)c(Cl)cc21 (centres undefined) | 3.68 µM
14 | Cc1ccc(C2C(C(=O)c3cc4ccccc4o3)=C(O)C(=O)N2c2cc(C)on2)cc1 (centres undefined) | 2.1 µM
15 | COc1ccccc1-c1cc(-c2ccccc2)nc(SCC(=O)O)c1C#N | 1.97 µM
16 | N#Cc1c(Nc2cccc(F)c2)sc2c(O)cc(=O)[nH]c12 | 0.861 µM
17 | CC(C)(C)c1ccc2c(c1)OC(C(=O)N/N=C/c1ccc([N+](=O)[O-])o1)CO2 (centres undefined) | 3.92 µM
18 | COc1ccc(C(=O)Nc2cccc(/C=C(\CCC(=O)O)c3nc4ccccc4s3)c2)cc1 | 8.09 µM
19 | CCOc1ccc(-c2nnc(NC(=O)c3ccc(OCC(C)C)c(OC)c3)o2)cc1 | 0.347 µM
20 | COc1cc2c(C(=O)N3CCN(c4ccccc4C)CC3)c(C)oc2cc1Br | 10.3 µM
21 | COc1ccc(NC(C)C(=O)N/N=C/c2c(O)ccc3ccccc23)cc1 (centres undefined) | 1.14 µM
22 | CC(C)OC(=O)c1cccnc1N1CCN(c2cccc(Cl)c2)CC1 | 4.36 µM
23 | CCOC(=O)c1cnc(-n2cc(C)cn2)nc1Nc1ccccc1OCC | 4.18 µM
24 | Cc1cccc(C)c1OCC(=O)Nc1ccccc1N1CCCCC1 | 2.78 µM
25 | O=C(N/N=C/c1c[nH]c2ccccc12)c1[nH]c2ccc(Br)cc2c1-c1ccccc1 | 2.17 µM
26 | O=C(NC(=S)NNC(=O)c1ccc(Cl)cc1Cl)c1cccnc1 | 3.07 µM

Row | Compound | EC50
27 | Cc1ccc2nc(NNC(=O)c3ccc(S(=O)(=O)N4CCc5ccccc5C4)cc3)sc2c1 | 0.793 µM
28 | O=[N+]([O-])c1c(NCCO)cc(Sc2nc3ccccc3s2)c2nonc12 | 2.95 µM
29 | O=C(CSc1nc(Nc2ccccc2)nc(N2CCOCC2)n1)Nc1cc(Cl)ccc1O | 4.13 µM
30 | CCCc1nnc(NC(=O)c2c(O)c3cccc4c3n(c2=O)CCC4)s1 | 6.91 µM
31 | CC(=O)OCC1=C(C(=O)O)N2C(=O)C(NC(=O)Cn3nc(C(F)F)c(Cl)c3C)C2SC1 (centres undefined) | < 0.06 µM
32 | CCOc1ccc(/C=N/NC(=O)Cc2csc(Nc3cccc(C(F)(F)F)c3)n2)cc1 | 6.35 µM
33 | COc1ccccc1CNC(=O)CSc1nc(=O)n(Cc2ccncc2)c2c1CCC2 | > 15 µM (inactive)
34 | Cc1cc(C(=O)N/N=C/c2cc(Cl)cc([N+](=O)[O-])c2O)c2ccccc2n1 | 2.61 µM
35 | Cc1cc(NC(=O)c2cnccn2)no1 | > 15 µM (inactive)
36 | Cc1cc(C)n(-c2nc(Nc3ccccc3C)nc(-n3nc(C)cc3C)n2)n1 | 5.32 µM
37 | O=C1[C@H]2C(c3ccccc3)=NN(c3ccccc3)[C@H]2C(=O)N1c1ccccc1 | 0.485 µM
38 | O=C(NC(=S)N1CCN(c2nc(-c3ccccc3)cs2)CC1)c1cncc(Br)c1 | 1.2 µM
39 | CC1Oc2cc3oc4c(O)c(O)ccc4c(=O)c3c(O)c2C1(C)C (centres undefined) | 5.89 µM
40 | O=C(CCC(=O)Nc1cc(C(F)(F)F)ccc1Cl)N/N=C\c1cc([N+](=O)[O-])ccc1O | 0.658 µM
41 | O=C(NNC(=O)c1cc(-c2ccc(Cl)c(Cl)c2)nc2ccccc12)Nc1ccccc1 | 4.83 µM
42 | Cc1csc2nc(CSc3nc4ccccc4o3)c(Br)n12 | 6.42 µM
43 | O=C(O)c1cccc(N/N=C/C2=C(Cl)c3cc(Cl)ccc3SC2)c1 | 1.77 µM
44 | FC(F)(F)c1cc(-c2ccco2)nc(NCc2ccc(Cl)cc2)n1 | 7.1 µM
45 | CCC(=O)NC(c1ccc(C)cc1)c1cc([N+](=O)[O-])c2cccnc2c1O (centres undefined) | 1.31 µM
46 | Fc1ccccc1N=C1NN=C(c2ccccc2)CS1 | 8.17 µM
47 | Cc1ccc(-c2nn(-c3ccccc3)cc2/C=N/NC(=O)CSc2nnc(C)n2-c2ccccc2)cc1 | 9.84 µM
48 | COc1cc(OC)cc(C(=O)Nc2nnc(NC(=S)Nc3ccccc3)s2)c1 | 5.13 µM
49 | O=C(c1cc2ccccc2cc1O)N1CCN(c2ccccc2O)CC1 | 9.87 µM
50 | CN1CCN(c2cc3c(cc2F)c(=O)c(C(=O)O)cn3CCF)CC1 | 4.37 µM
51 | Cn1c(=O)c(C(=O)NNC(=O)c2ccccc2Br)c(O)c2ccccc21 | 7.51 µM
52 | CC(C)C1Cc2c(sc3[nH]c(=S)n(Cc4ccccc4)c(=O)c23)CO1 (centres undefined) | 2.93 µM

Row | Compound | EC50
53 | CCn1cc(C(=O)O)c(=O)c2cc(F)c(N3CCN(S(=O)(=O)c4ccc5c(c4)OCCO5)CC3)cc21 | 2.9 µM
54 | O=C(Nc1cccc(Cl)c1N1CCCC1)c1ccc(Br)o1 | 5.82 µM
55 | O=C(CNC(=O)c1ccco1)NCc1nc2ccccc2[nH]1 | > 15 µM (inactive)
56 | Cc1cccc2sc(NNC(=O)c3ccc(S(=O)(=O)N4CC(C)CC(C)C4)cc3)nc12 (centres undefined) | 0.212 µM
57 | Cc1nn(-c2ccccc2)c(C)c1/C=N/n1c(-c2ccc(C(C)(C)C)cc2)n[nH]c1=S | 2.62 µM
58 | CCOc1cc(CNc2ccc3c(c2)CCC3)ccc1OC | > 15 µM (inactive)
59 | CNC[C@H](CC1CCCCC1)NC[C@H](Cc1ccccc1)NCCC12CC3CC(CC(C3)C1)C2 | 2.94 µM
60 | O=C(NC(=S)NNC(=O)c1cccs1)c1ccco1 | 6.22 µM
61 | CC(C)(C)[C@@H]1CCC(=O)N(CC[C@H](Sc2ccccc2)c2ccccc2)CC1 | 3.95 µM
62 | COc1ccc(-c2coc3c(C)c4oc(=O)c(CCC(=O)O)c(C)c4cc23)cc1 | 2.13 µM
63 | CCN(CCn1cccn1)C(=O)CC1C(=O)NCCN1CCc1ccccc1 (centres undefined) | > 15 µM (inactive)
64 | CCCn1c(=O)c(C(=O)Nc2ncccc2C)c(O)c2ccccc21 | 5.16 µM
65 | COc1ccc(/C=C/c2ccc3cccc(O)c3n2)cc1Br | 0.419 µM
66 | O=C1C=C(Nc2ccccc2O)c2ccccc2C1=O | 3.08 µM
67 | COc1ccc(OC)c(/C=N/n2c(-c3n[nH]c4c3CCC4)n[nH]c2=S)c1 | > 15 µM (inactive)
68 | CC(C)=CCC12Oc3cc(O)ccc3C1(O)Oc1cc(O)c([C@H]3C=C(C)CC(c4ccc(O)cc4O)[C@H]3C(=O)c3ccc(O)cc3O)c(O)c1C2=O (some centres undefined) | 1.21 µM
69 | CC(=O)O[C@H]1C[C@@]2(C)[C@@H](C[C@@H](O)[C@H]3[C@@]4(C)CC[C@@H](O)[C@@H](C)C4CC[C@@]32C)/C1=C(\CCC=C(C)C)C(=O)O (some centres undefined) | 1.58 µM
70 | Cc1ccc(NC(=S)NNC(=S)Nc2cccc(C(F)(F)F)c2)cc1 | 2.04 µM
71 | C[C@@H](O)[C@H]1C(=O)N2C(C(=O)O)=C(S[C@@H]3CN[C@H](C(=O)N(C)C)C3)[C@H](C)[C@H]12 | 0.127 µM
72 | Cc1cc(C(C#N)c2ccc(Cl)cc2)c(Cl)cc1NC(=O)c1cc(I)cc(I)c1O (centres undefined) | 0.082 µM
73 | C=CCn1c(Oc2ccc(C(=O)OC)cc2)nc2c1c(=O)n(C)c(=O)n2C | 7.96 µM
74 | Cc1cccc(/C=C2/S/C(=N/N=C3\CC4CCC3(C)C4(C)C)NC2=O)c1 (centres undefined) | 1.19 µM
75 | CCOC(=O)c1cnc(-n2nc(C)cc2C)nc1NC1CCCC1 | 2.58 µM
76 | O=C(N/N=C/c1cc([N+](=O)[O-])cc(Br)c1O)C12CC3CCC(CC(C3)C1)C2 | 5.07 µM
77 | COC(=O)C1CN(C#N)N(c2ccc(Cl)cc2)C12c1ccccc1-c1ccccc12 (centres undefined) | 4.21 µM
78 | Cc1ccc(-c2csc(NC(=O)c3ccc([N+](=O)[O-])o3)n2)cc1 | 3.42 µM

Row | Compound | EC50
79 | CCC(C)c1ccc(C2C3=C(Nc4nc(N)[nH]c(=O)c42)c2ccccc2C3=O)cc1 (centres undefined) | 3.71 µM
80 | COc1ccc(-n2nc(C(=O)c3cccs3)cc(-c3nc4ccccc4[nH]3)c2=N)cc1 | 1.2 µM
81 | O=S(=O)(c1ccccc1)N1CCN=C1SCc1c(F)cccc1Cl | 8.15 µM
82 | CCOC(=O)c1sc(N2C(=O)C(O)=C(C(=O)c3ccco3)C2c2cccc(Cl)c2)nc1C (centres undefined) | 5.26 µM
83 | Cn1c2ccccc2c(=O)c2c(=O)n(C3CCCCC3)c(-c3cccs3)nc21 | 7.03 µM
84 | N=C1SC(c2ccccc2)C(=O)N1c1ncc(Cc2ccccc2Cl)s1 (centres undefined) | 0.177 µM
85 | CC1(C)S[C@@H]2[C@H](NC(=O)COc3ccccc3)C(=O)N2C1C(=O)OCc1cc2ccccc2n1S(=O)(=O)c1ccccc1 (some centres undefined) | 3.33 µM
86 | C=CCNC(=S)N/N=C(\C)c1ccccn1 | 1.76 µM
87 | Cc1ccc(Nc2nc(N/N=C\c3ccc4c(c3)OCO4)nc(N3CCOCC3)n2)cc1 | 4.5 µM
88 | Oc1[nH]c2ccccc2c1N=NC(=S)NCCc1ccccc1 | 4.39 µM
89 | CCOc1ccc(C(=O)NC(=S)N(Cc2ccccc2)Cc2ccccc2)cc1 | 1.39 µM
90 | CCCCCCCCOC(=O)/C=C/c1c(C)[nH]c(=O)[nH]c1=O | 0.788 µM
91 | Cc1cccc(/C=N/NC(=O)c2ccccc2OCc2cccc(Br)c2)n1 | 6.56 µM
92 | Cc1cc(NC(=O)/C=C/c2ccccc2Cl)n(-c2nc3ccccc3[nH]2)n1 | 1.9 µM
93 | Cc1cccc(N2CCN(C(=O)c3ccc4nc(N5CCCCC5)sc4c3)CC2)c1C | 7.63 µM
94 | Cn1nnnc1SCC(=O)Nc1nc(-c2ccccc2)c(-c2ccccc2)o1 | 7.27 µM
95 | CCn1nc(NC(=O)c2ccncc2)c2cc3cc(C)ccc3nc21 | 2.66 µM
96 | COc1cc(/C=C/c2ccc3cccc(O)c3n2)c(Br)cc1O | 0.35 µM
97 | CC1(C(=O)NC(=S)NNC(=O)c2ccncc2)CCCCC1 | 1.1 µM
98 | CC(=O)Oc1ccc(-c2nc(-c3cccnc3)no2)cc1 | 4.93 µM
99 | O=C(N/N=C/c1cc(Br)cc([N+](=O)[O-])c1O)c1ccc(NC(=O)c2ccc(F)cc2)cc1 | 4 µM
100 | Cc1ccc(N=Nc2ccc(O)c3ncccc23)cc1 | 0.098 µM
101 | Cc1ccc(C(=O)C2=C(O)C(=O)N(Cc3ccco3)C2c2cccc(Br)c2)o1 (centres undefined) | 6.67 µM
102 | CC(C)C(=O)NC(c1ccccc1)c1cc([N+](=O)[O-])c2cccnc2c1O (centres undefined) | 2.48 µM
103 | O=C(N/N=C/c1c(O)ccc2ccccc12)Nc1ccccc1 | 7.74 µM
104 | O=C(N/N=C\C=C\c1ccc([N+](=O)[O-])o1)c1cccs1 | 1.97 µM
